Assay results as given in patent US7625911B2, “Amorphous form of erlotinib hydrochloride and its solid amorphous dispersion” (Mai De Ltd., priority 2005, dated 2009).

Assay: Solubility (complete dissolution) of erlotinib hydrochloride in alcohol solvents at elevated temperature
Format: physicochemical
Text: In a first step of the distillation process, crystalline erlotinib hydrochloride is preferably dissolved in an […] solvent; more preferably dissolved in a straight or branched chain C1-C4 alcohol solvent, and most preferably dissolved in methanol or ethanol to form a solution. Erlotinib hydrochloride has the highest solubility in methanol or ethanol, allowing the complete dissolution of erlotinib hydrochloride at elevated temperature.
(§1) In particular, erlotinib hydrochloride is soluble in methanol at or over 50° C., allowing the complete dissolution of erlotinib hydrochloride in methanol at 50° C. or above with a concentration of 10 mg per milliliter (ml). The use of a relatively concentrated solution, e.g. about 10 mg per ml is therefore preferred for methanol.
as §1, with “ethanol” for “methanol”, “70°” for “50°”, “[…]” for “50° C. or above”, “ml.” for “milliliter (ml).”, “ethanol.” for “methanol.”
In particular, erlotinib hydrochloride is soluble in methanol, ethanol or a mixture of ethanol and water solvents at 45° C.-55° C., allowing the complete dissolution of erlotinib hydrochloride in methanol or ethanol at this elevated temperature with a concentration of about 10 mg per ml. The use of a relatively concentrated solution, e.g. about 10 mg per ml or over is therefore preferred for spraying drying process.

## C#Cc1cccc(Nc2ncnc3cc(OCCOC)c(OCCOC)cc23)c1.Cl [erlotinib hydrochloride, [6,7-bis(2-methoxy-ethoxy)-quinazolin-4-yl]-(3-ethynyl-phenyl) amine hydrochloride]
ethanol, soluble at or over 70° C. (sentence also says ambient temperature)
  concentration at complete dissolution in ethanol: 10 mg per ml
methanol, at 50° C. or above
  concentration at complete dissolution in methanol: 10 mg per milliliter (ml)
methanol, ethanol or ethanol/water mixture, 45° C.-55° C.
  concentration at complete dissolution in methanol, ethanol or a mixture of ethanol and water: about 10 mg per ml
